How the values were obtained:
[1] = biological target: T1, Cbl-b (Homo sapiens, UniProt Q13191); test: Cbl-b activity assay (Cbl-b inhibition assay), TR-FRET of Cbl-b interaction with UbcH5B-Ub; type: biochemical
Method in brief: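 UbcH5B (C85K) conjugated to N-terminally Bodipy-Fluorescein-labeled ubiquitin served as the fluorescent partner. After compound preincubation, Src kinase (60 nM) with 1 mM ATP and 5 mM MgCl2 (final) was added for 1.5 h, followed by a further 1 h incubation. Some values were obtained with 50 mM NaCl and 30 nM Src.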

[2] = biological target: Cbl-b (residues 36-427) (Homo sapiens, UniProt Q13191); test: Cbl-b binding assay (SPR, Biacore T200); details: 20° C., 1:1 binding model
Sequence of Cbl-b (residues 36-427) (Q13191 36-427): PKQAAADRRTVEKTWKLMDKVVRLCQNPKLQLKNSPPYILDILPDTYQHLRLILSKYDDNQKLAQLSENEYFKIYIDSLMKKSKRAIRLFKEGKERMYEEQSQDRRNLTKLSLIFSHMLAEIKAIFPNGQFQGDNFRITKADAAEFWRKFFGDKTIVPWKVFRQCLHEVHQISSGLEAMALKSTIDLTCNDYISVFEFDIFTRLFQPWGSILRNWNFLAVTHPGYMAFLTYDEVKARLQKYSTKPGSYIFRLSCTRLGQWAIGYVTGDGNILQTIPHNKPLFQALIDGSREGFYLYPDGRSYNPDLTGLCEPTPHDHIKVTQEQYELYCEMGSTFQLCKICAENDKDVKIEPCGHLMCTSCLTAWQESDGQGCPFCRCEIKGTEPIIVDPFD
Protocol: SPR data was collected on a Biacore T200 (GE Healthcare) using a NeutrAvidin (Invitrogen) capture surface that was generated on a polycarboxylate hydrogel sensor chip of medium charge density (XanTec Bioanalytics GmbH) at 20° C. The surface was prepared using 20 mM HEPES, pH 7.5, 100 mM NaCl, 0.5 mM TCEP, 0.01% Triton X-100 as the immobilization buffer. Neutravidin was coupled to the sensor chip through EDC/NHS amine coupling. All steps were performed using a flow rate of 10 μl/min. First, the chip was preconditioned with a 3-min injection of 1 M NaCl, 0.1 M Borate followed by a 10-min equilibration in immobilization buffer. The surface was activated by a 5-min injection of 100 mM EDC/50 mM NHS. Next, 250 μg/mL NeutrAvidin buffered in 10 mM sodium acetate buffer, pH 5.0 was injected over the surface for 2 min. The surface was deactivated with 1 M Tris, pH 8.5 for 7 min then re-equilibrated in immobilization buffer for 7 min. […] Flow cell 1 served as a reference surface and was prepared without protein. All binding measurements were made in 20 mM HEPES, pH 7.5, 100 mM NaCl, 0.5 mM TCEP, 0.01% Triton X-100, 2% DMSO (referred as assay buffer) at 20° C. Compounds, prepared in assay buffer, were diluted from atop concentration of either 100 μM or 50 μM using either a 2- or 3-fold dilution scheme containing 8 or 10 points. Samples were injected for 50 s at 50 μl/min. Dissociation time varied from 90-180 s, depending on anticipated potency. The surface was regenerated by injection of 0.3 M NaCl, prepared in assay buffer for 20 s at 10 μl/min. Positive and negative control samples were run between each compound to monitor surface integrity.
Column marked with an asterisk (*) were tested as described above with assay buffer containing 50 mM NaCl instead of 100 mM NaCl and 30 nM Src kinase instead of 60 nM Src kinase. The resulting data for the Cbl-b binding assay was solvent corrected and double referenced prior to analysis. All data were globally fit to a steady-state affinity and kinetic binding model where applicable). Fit parameters were derived from a 1:1 binding model using the Biacore T200 Evaluation Software V2.0 (GE Healthcare) (Table 2).

[3] = biological target: T1, Cbl-b; test: Cbl-b inhibition assay (Cbl-b activity assay, FRET, Biological Example 1; 100 mM NaCl, 60 nM Src kinase); type: biochemical; details: upper bound stated in text lists; read-out: IC50 values in the Cbl-b inhibition assay of Biological Example 1
Method in brief: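 Inhibition is read as loss of FRET signal. The signal arises when Src-phosphorylated, N-terminal biotinylated Avi-Cbl-b (captured by streptavidin-terbium) binds UbcH5B carrying covalently linked Bodipy-Fluorescein-tagged ubiquitin.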

[4] = assay buffer with 100 mM NaCl, 60 nM Src kinase, read-out: Cbl-b activity IC50
[5] = * assay buffer containing 50 mM NaCl instead of 100 mM NaCl and 30 nM Src kinase instead of 60 nM, read-out: Cbl-b activity IC50 (μM)*

T1 sequence (Q13191 36-427): as above

For `C[C@H](Sc1nncn1C)c1cccc(NC(=O)c2cc(C(F)(F)F)c3ccccc3n2)c1` [Compound 83, (S)-N-(3-(1-((4-methyl-4H-1,2,4-triazol-3-yl)thio)ethyl)phenyl)-4-(trifluoromethyl)quinoline-2-carboxamide], the IC50 [1, 4] was 1 to 3 µM, the Kd [2] was 3 to 10 µM and the IC50 [3] was ≤ 10 µM.

`C[C@H](Sc1nncn1C)c1cccc(NC(=O)c2cc(NS(=O)(=O)CCO)ccn2)c1` [Compound 86, 4-(2-hydroxyethylsulfonylamino)-N-[3-[(1S)-1-[(4-methyl-1,2,4-triazol-3-yl)sulfanyl]ethyl]phenyl]pyridine-2-carboxamide] was tested, and the IC50 [1, 4] was 3 to 10 µM, the Kd [2] was > 10 µM and the IC50 [3] was ≤ 10 µM.

`C[C@H](Sc1nncn1C)c1cccc(NC(=O)c2cccc(CF)n2)c1` [Compound 87, 6-(fluoromethyl)-N-[3-[(1S)-1-[(4-methyl-1,2,4-triazol-3-yl)sulfanyl]ethyl]phenyl]pyridine-2-carboxamide] was tested, and the IC50 [1, 4] was 1 to 3 µM, the Kd [2] was 1 to 3 µM and the IC50 [3] was ≤ 10 µM.

In the case of `C[C@H](Sc1nncn1C)c1cccc(NC(=O)c2cccc3scnc23)c1` [Compound 88, N-[3-[(1 S)-1-[(4-methyl-1,2,4-triazol-3-yl)sulfanyl]ethyl]phenyl]-1,3-benzothiazole-4-carboxamide], the IC50 [1, 4] is reported as 1 to 3 µM, the Kd [2] is reported as 3 to 10 µM and the IC50 [3] is reported as ≤ 10 µM.

For `CCOc1cccc(C(=O)Nc2cccc([C@H](C)Sc3nncn3C)c2)n1` [Compound 90, 6-Ethoxy-N-[3-[(1S)-1-[(4-methyl-1,2,4-triazol-3-yl)sulfanyl]ethyl]phenyl]pyridine-2-carboxamide], the IC50 [1, 4] was 1 to 3 µM, the Kd [2] was 3 to 10 µM and the IC50 [3] was ≤ 10 µM.

With `CC(Sc1nncn1C)c1ccc(F)c(NC(=O)c2cccc(C(F)(F)F)n2)c1` (stereo not shown) [Compound 95, N-(2-fluoro-5-(1-((4-methyl-4H-1,2,4-triazol-3-yl)thio)ethyl)phenyl)-6-(trifluoromethyl)picolinamide] the IC50 [1, 4] was 1 to 3 µM, the Kd [2] was 1 to 3 µM and the IC50 [3] was ≤ 10 µM.

In the case of `C[C@@H](Sc1nncn1C)c1ccc(F)c(NC(=O)c2cccc(C(F)(F)F)n2)c1` [Compound 95b, (R)-N-(2-fluoro-5-(1-((4-methyl-4H-1,2,4-triazol-3-yl)thio)ethyl)phenyl)-6-(trifluoromethyl)picolinamide], the IC50 [1, 4] is reported as 3 to 10 µM, the Kd [2] is reported as > 10 µM and the IC50 [3] is reported as ≤ 10 µM.

For `C[C@H](Sc1nncn1C)c1ccc(F)c(NC(=O)c2ccc3ccccc3n2)c1` [Compound 96a, (S)-N-(2-fluoro-5-(1-((4-methyl-4H-1,2,4-triazol-3-yl)thio)ethyl)phenyl)quinoline-2-carboxamide], the IC50 [1, 4] was 1 to 3 µM, the Kd [2] was 1 to 3 µM and the IC50 [3] was ≤ 10 µM.

With `COc1ccc(C(C)Sc2nncn2C)cc1NC(=O)c1ccc2ccccc2n1` (stereo not shown) [Compound 97, N-(2-methoxy-5-(1-((4-methyl-4H-1,2,4-triazol-3-yl)thio)ethyl)phenyl)quinoline-2-carboxamide] the IC50 [1, 5] was 1 to 3 µM, the IC50 [1, 4] was 1 to 3 µM and the Kd [2] was 3 to 10 µM. The IC50 [3] was ≤ 10 µM.

Compound `C[C@H](Sc1nncn1C1CC1)c1cccc(NC(=O)c2cc3ccccc3cn2)c1` [Compound 99, (S)-N-(3-(1-((4-cyclopropyl-4H-1,2,4-triazol-3-yl)thio)ethyl)phenyl)isoquinoline-3-carboxamide] has an IC50 [1, 5] of 3 to 10 µM, an IC50 [1, 4] of 0.301 to 1 µM and a Kd [2] of 3 to 10 µM. For the same compound, the IC50 [3] was ≤ 1 µM.

With `C[C@H](Sc1nncn1C)c1ccnc(NC(=O)c2cccc(C(F)(F)F)n2)c1` [Compound 102b, (S)-N-(4-(1-((4-methyl-4H-1,2,4-triazol-3-yl)thio)ethyl)pyridin-2-yl)-6-(trifluoromethyl)picolinamide] the IC50 [1, 5] was 1 to 3 µM, the IC50 [1, 4] was 1 to 3 µM and the Kd [2] was 1 to 3 µM. The IC50 [3] was ≤ 10 µM.

In the case of `C[C@H](Sc1nncn1C)c1ccnc(NC(=O)c2ccc3cccc(F)c3n2)c1` [Compound 107, (S)-8-fluoro-N-(4-(1-((4-methyl-4H-1,2,4-triazol-3-yl)thio)ethyl)pyridin-2-yl)quinoline-2-carboxamide], the IC50 [1, 4] is reported as 1 to 3 µM, the Kd [2] is reported as 3 to 10 µM and the IC50 [3] is reported as ≤ 10 µM.

With `C[C@H](Sc1nncn1C)c1ccnc(NC(=O)c2ccc3c(n2)CCCC3)c1` [Compound 108, (S)-N-(4-(1-((4-methyl-4H-1,2,4-triazol-3-yl)thio)ethyl)pyridin-2-yl)-5,6,7,8-tetrahydroquinoline-2-carboxamide] the IC50 [1, 4] was 1 to 3 µM, the Kd [2] was 3 to 10 µM and the IC50 [3] was ≤ 10 µM.

In the case of `C[C@H](Sc1nncn1C)c1ccnc(NC(=O)c2cc3c(cn2)CCCC3)c1` [Compound 109, (S)-N-(4-(1-((4-methyl-4H-1,2,4-triazol-3-yl)thio)ethyl)pyridin-2-yl)-5,6,7,8-tetrahydroisoquinoline-3-carboxamide], the IC50 [1, 4] is reported as 3 to 10 µM, the Kd [2] is reported as 3 to 10 µM and the IC50 [3] is reported as ≤ 10 µM.

For `C[C@H](Sc1nncn1C)c1ccnc(NC(=O)c2cccc(C(C)(F)F)n2)c1` [Compound 110, (S)-6-(1,1-difluoroethyl)-V-(4-(1-((4-methyl-4H-1,2,4-triazol-3-yl)thio)ethyl)pyridin-2-yl)picolinamide], the IC50 [1, 4] was 0.301 to 1 µM, the Kd [2] was 3 to 10 µM and the IC50 [3] was ≤ 1 µM.

For `C[C@H](Sc1nncn1C)c1ccnc(NC(=O)c2cc(C(F)(F)F)c3ccccc3n2)c1` [Compound 111, (S)-N-(4-(1-((4-methyl-4H-1,2,4-triazol-3-yl)thio)ethyl)pyridin-2-yl)-4-(trifluoromethyl)quinoline-2-carboxamide], the IC50 [1, 4] was 3 to 10 µM, the Kd [2] was 3 to 10 µM and the IC50 [3] was ≤ 10 µM.

In the case of `C[C@H](Sc1nncn1C)c1ccnc(NC(=O)c2ccc3ccccc3n2)c1` [Compound 112, (S)-N-(4-(1-((4-methyl-4H-1,2,4-triazol-3-yl)thio)ethyl)pyridin-2-yl)quinoline-2-carboxamide], the IC50 [1, 5] is reported as 1 to 3 µM, the IC50 [1, 4] is reported as 0.301 to 1 µM and the Kd [2] is reported as 3 to 10 µM. The IC50 [3] was ≤ 1 µM.

With `C[C@H](Sc1nncn1C)c1ccnc(NC(=O)c2cc(C(F)(F)F)c(Cl)cn2)c1` [Compound 114, (S)-5-chloro-N-(4-(1-((4-methyl-4H-1,2,4-triazol-3-yl)thio)ethyl)pyridin-2-yl)-4-(trifluoromethyl)picolinamide] the IC50 [1, 4] was 3 to 10 µM, the Kd [2] was > 10 µM and the IC50 [3] was ≤ 10 µM.

`C[C@H](Sc1nncn1C)c1ccnc(NC(=O)c2cccc(S(F)(F)(F)(F)F)c2)c1` [Compound 116, N-[4-[(1S)-1-[(4-methyl-1,2,4-triazol-3-yl)sulfanyl]ethyl]-2-pyridyl]-3-(pentafluoro-λ^6-sulfanyl)benzamide] was tested, and the IC50 [1, 4] was 3 to 10 µM, the Kd [2] was 3 to 10 µM and the IC50 [3] was ≤ 10 µM.

With `C[C@H](Sc1nncn1C)c1ccnc(NC(=O)c2cccc(C3CC3)n2)c1` [Compound 117, 6-cyclopropyl-N-[4-[(1S)-1-[(4-methyl-1,2,4-triazol-3-yl)sulfanyl]ethyl]-2-pyridyl]pyridine-2-carboxamide] the IC50 [1, 4] was 1 to 3 µM, the Kd [2] was 3 to 10 µM and the IC50 [3] was ≤ 10 µM.

`C[C@H](Sc1nncn1C)c1ccnc(NC(=O)c2nc3ccccc3s2)c1` [Compound 121, N-[4-[(1S)-1-[(4-methyl-1,2,4-triazol-3-yl)sulfanyl]ethyl]-2-pyridyl]-1,3-benzothiazole-2-carboxamide] was tested, and the IC50 [1, 4] was 3 to 10 µM, the Kd [2] was 3 to 10 µM and the IC50 [3] was ≤ 10 µM.

`C[C@H](Sc1nncn1C)c1ccnc(NC(=O)c2cccc(OC(F)(F)F)n2)c1` [Compound 122, (S)-N-(4-(1-((4-methyl-4H-1,2,4-triazol-3-yl)thio)ethyl)pyridin-2-yl)-6-(trifluoromethoxy)picolinamide] was tested, and the IC50 [1, 4] was 1 to 3 µM, the Kd [2] was 1 to 3 µM and the IC50 [3] was ≤ 10 µM.

Reference: patent US20220324835A1 (Nurix Therapeutics, Inc., priority 2018, published 2022)
